The values below come from patent US10849875B2, “Cancer specific lipid targeted peptidomimetics” (University of Houston System, priority 2015, dated 2020).

Data set [1] is described as follows: Propidium iodide test of cell lysis. The class given is cell-based. The note with it: non-permeabilized cells.
The nature of data set [2]: Toxicity of PPS1-D2 to mice. Type of data set: in vivo.
Data set [3] deals with tumor vascular endothelium of subcutaneous HCC4017 tumors. The data set is described as follows: In vivo vascular disrupting effect. Also on record: species or system mice. The following applies: 20 μg i.v., 24 hours. As to the method:
The in vivo vascular disrupting effects of PPS1-D2 were explored. Mice bearing HCC4017 tumors growing subcutaneously were injected i.v. with 20 μg of PPS1-D2. Twenty four hours later, the tumors were removed, cryosectioned, and stained for CD31 to detect vascular endothelium. […] This dose can be calculated to give an initial blood concentration that is roughly 10-fold higher than needed for maximal lysis of PS-expressing cell in vitro.

The subject of the next data set is breast cancer. The note with it: cited from earlier work.
The conditions of data set [4]: complexes with beta2-glycoprotein 1; cited from earlier work.
In data set [5] the test system is non-small cell lung cancer (NSCLC). The following applies: in combination with carboplatin and paclitaxel (11/17); cited from earlier work.
Data set [6] deals with HCC4017, H460, HCC95, H1693, H1395 lung cancer cell lines. Kind of data set: Cell staining with Hoechst 33342 and propidium iodide (membrane integrity). The class given is cell-based, human. The note with it: 0.005% Benzalkonium chloride. As to the method: It was evaluated how PPS1D1 affects viability of these PS expressing cancer cell lines. While there are difficulties of narrowing down the exact mechanism of action of a compound targeting cell membrane lipids, whether PPS1D1 has any effect on cell membrane integrity was evaluated. Cells were treated with standard DNA staining dyes Propidium iodide (PI) and Hoechst 33342. While both bind DNA, only Hoechst is cell permeable. Therefore, when treating live cells only Hoechst will stain the nucleus while PI will stain the nucleus only if the cell membrane integrity is compromised. All the lung cancer cell lines and normal HBEC30KT cells were treated with these dyes in the presence of PPS1D1 (at 1 μM and 20 μM) or a control compound PC462D1 at 20 μM and evaluated fluorescence by microscopy without fixation. […] These observations indicate that 20 μM PPS1D1 is selectively cytotoxic to PS-positive lung cancer cells.
10,000 cells of HCC4017, H460, HCC95, H1693,H1395 and HBEC30KT were plated on chamber slides (Lab-Tek, Thermo Fisher, MA). On second day, cells were treated with PPS (1 μM and 20 μM), control PC462D1 (20 μM) and 0.005% Benzalkonium chloride (BAC) in RPMI medium with 10% FBS containing 3% BSA (KSFM media with 3% BSA for HBEC30KT). Chamber slides were washed with PBS three times. Cells were then stained with Hoechst 33342 (10 μg/ml) for 30 min in dark. Chamber slides were washed with 3× PBS. Cells were then stained with propidium iodide (1 mg/ml) for 15 mins. Cells were washed with 3× PBS and imaged using Fluorescence Microscope (Olympus BX-53).

Another data set concerns H460 xenografts. The data set is described as follows: Inhibition of growth of H460 lung cancer xenograft. The class given is in vivo, mice. As to the method: Whether PPS1D1 would inhibit tumor growth in a murine model was examined. H460 cells were implanted in nude mice. Tumors were allowed grow until it reach […]. These xenografts were then treated with a daily dose of […] in four different groups that consist of PPS1D1 alone, docetaxel alone, PPS1D1 and docetaxel together or with the control peptoid (PC462D1) alone. Docetaxel is a standard chemotherapeutic treatment for non-small cell carcinoma. The activity of PPSD1 and its ability to work as a combination treatment were examined. […] This effect was extremely potent and the tumor growth was completely controlled. […] It has been reported that chemotherapy and radiation therapy increase the PS flipping in tumor microenvironment. Therefore, Docetaxel might have helped improve binding of PPS1D1 on cancer cell surface that is now displaying an increased amount of PS to be targeted. After the standard chemotherapy and radiation therapy, the target PS is highly abundant for the drug to recognize and attack.
The effect of PPS1D1 on the growth of H460 xenografts implanted in NOD/SCID immunodeficient mice was examined. Immunodeficient animals were chosen to facilitate the growth of human tumor xenografts. […] Therapy with a control peptoid (PC462D1, 0.25 mg/mouse, 3×/week ip), PPS1D1 (0.25 mg/mouse, 3×/week ip), docetaxel (0.5 mg/kg, 2×/week, ip) or the combination of PPS1D1+docetaxel was initiated when tumors were ˜100 mm3 in volume. […] Tumor tissue was harvested after 4 weeks of therapy and assessed for cell proliferation and apoptosis by immunohistochemistry. […] It is clear from studies with bavituximab that standard chemotherapy (e.g., taxanes) increases the exposure of PS resulting in elevated binding of the PS targeting agent. A similar mechanism can underlie the enhanced activity of docetaxel and PPS1D1.
All animals were housed in a pathogen-free facility with continuous access to food and water. Mice were purchased from the core breeding facility at UT Southwestern. Six to eight-week-old female NOD/SCID mice were injected with 2.5×10^6 H460 cells subcutaneously. Tumor volume was followed by twice weekly measurements with Vernier calipers. Animals were randomized and treatment was initiated with mean tumor volume of each group was 100 mm3. Four different groups used were: (I) control PC462D1, (II) PPS1D1, (III) docetaxel, and (IV) combination of PPS1D1+docetaxel. Mice (n=8/group) were treated with PPS1D1 or PC462D1 in saline by ip injection at a dose of 0.25 mg/mouse, 3 times per week on a M-W-F schedule. Docetaxel from the UT Southwestern Clinical pharmacy was diluted in saline and delivered 2×/week ip at 5 mg/kg. Animals were sacrificed after 4 weeks of therapy. Tumor tissue was snap frozen, sectioned and stained with antibodies specific for phospho-Histone H3 (Millipore, #06-570) and cleaved caspase 3 (Cell Signaling, #9664). Reactivity was developed with appropriate fluorescently conjugated secondary antibodies (Jackson ImmunoResearch) and mounted with Prolong Gold with DAPI (Invitrogen), coverslipped and evaluated by fluorescence microscopy.

A short description of data set [7]: Annexin V competition on lipid ELISA. The class given is binding. The following applies: ELISA-like, 100 nM Annexin V. As to the method:
(§1) Multiple competition assays were conducted to determine whether PPS1 (or PPS1D1) competes with Annexin V, a known PS binding agent. […] Competition between Annexin V and PPS1 for binding to PS in liposomes using flow cytometry was evaluated. […] However, PPS1 directly binds PS. Also, PS-ligand binding may be much more complex than that of a typical protein-ligand binding. Typical protein ligand binding occurs via a defined binding pocket, which facilitates clear competition by other ligands that interact with the same binding pocket. But PS is a lipid in a fluid membrane, which has no defined macromolecular structure further complicating possible binding modes.
Lipids (Avanti Polar Lipids) were dissolved in chloroform at 10 μg/ml and coated on to Immulon 1B “U” bottom microtiter plates (ThermoFisher, MA). Chloroform was evaporated at room temp (in the hood) and plates were blocked with 200 μl of 1% BSA for 1 hour. Plates were washed with 3× PBS. Biotinylated PPS1D1 dissolved in blocking buffer was added and incubated for 1 hour at room temp. Plates were washed with 3× PBS and 2× Annexin binding buffer. […] Binding was detected with streptavidin-HRP (1:1000 in blocking buffer) followed by 100 μl OPD (Sigma-Aldrich, MO). The reaction was stopped with 100 μl 0.18M H2SO4 and absorbance was read at 490 nm using the spectrophotometer (Spectramax i3, Molecular Devices, CA).
On the technique in general: An ELISA detects its analyte on a solid surface through an enzyme-linked reagent.

The nature of data set [8]: On-bead competition assay. The class given is binding. The following applies: Annexin V at 10, 50 and 100 nM. As to the method:
Experimental procedure 12: On-bead competition assay. PPS1 and PC462 were synthesized on Tentagel beads. Organic solvent was removed and the beads were washed with 3 times with PBS. The beads were then incubated with PBS containing 3% BSA for 1 hour at room temperature. These beads were then incubated with 0.1 mM liposomes (84 mol % POPC, 15 mol % DOPS and 1 mol % NBD) for 2 hours at room temperature. Beads containing liposomes were the washed with binding buffer 3 times. […] Beads were then washed with binding buffer and imaged using fluorescence Microscope (Olympus BX-53).

For data set [9] the following is noted: calcium-dependent; cited from earlier work.
Data set [10] can be described thus: Annexin V / PPS1 competition on liposomes by flow cytometry. The following applies: unlabeled Annexin V 50 nM. Type of data set: binding. As to the method:
as §1
Unlabeled Annexin V vs FITC-PPS1 competition. 0.1 mM liposomes (85 mol % POPC, 15 mol % DOPS) were incubated with incubated with 50 nM Annexin V in Binding Buffer (0.01 M HEPES/NaOH (pH 7.4), 0.14 M NaCl, and 2.5 mM CaCl2) with 3% BSA for lhour. FITC PPS1 was added and the solution was incubated for 1 hour at room temperature. The binding of FITC-PPS1 to liposomes was analyzed by BD Accuri™ C6 flow cytometer (Becton-Dickinson, NJ). All data were analyzed using BDAccuriC6 software.
Unlabeled PPS1 vs FITC-Annexin V competition. […] The binding of FITC-Annexin V to liposomes was analyzed by BD Accuri™ C6 flow cytometer (Becton-Dickinson, NJ). All data were analyzed using BDAccuriC6 software.
(In general: A flow cytometer gives signals particle by particle.)

Positions of bridges follow the written chain, without caps; N, C: chain ends. Non-standard residues stand in square brackets, D forms with d. Residues, ends and D or L forms follow the SMILES beside them. Chains are numbered I, II in the order given. Gly(N-piperonyl) = O=C(O)CNCc1ccc2c(c1)OCO2; N(4-MeOBn)Gly = COc1ccc(CNCC(=O)O)cc1; Nrpe = C[C@@H](NCC(=O)O)c1ccccc1; Nlys = NCCCCNCC(=O)O; βAla = NCCC(=O)O

For orientation: Kd means a measure of binding affinity in units of concentration.

With `COc1ccc(CN(CC(=O)N(CCCCN)CC(=O)N[C@@H](CCCCN)C(=O)N[C@H](CCCCN)C(=O)N[C@@H](CCSC)C(=O)NCCC(=O)NCCCC[C@H](NC(=O)CCNC(=O)[C@H](CCSC)NC(=O)[C@@H](CCCCN)NC(=O)[C@H](CCCCN)NC(=O)CN(CCCCN)C(=O)CN(Cc2ccc(OC)cc2)C(=O)CN(C(=O)CN(Cc2ccc3c(c2)OCO3)C(=O)CN[C@H](C)c2ccccc2)[C@H](C)c2ccccc2)C(N)=O)C(=O)CN(C(=O)CN(Cc2ccc3c(c2)OCO3)C(=O)CN[C@H](C)c2ccccc2)[C@H](C)c2ccccc2)cc1` [PPS1-D2] (I: H-[Nrpe][Gly(N-piperonyl)][Nrpe][N(4-MeOBn)Gly][Nlys]K[dK]M[βAla]K-NH2 / II: H-[Nrpe][Gly(N-piperonyl)][Nrpe][N(4-MeOBn)Gly][Nlys]K[dK]M[βAla]; amide I:10-II:C; N-terminus assumed), in [1], the “nuclear staining by propidium iodide” value is “nuclear staining happens only when PPS1-D2 is treated”. For the same compound, the signs of toxicity result in [2] (mice treated with 50 μg) was “no signs of toxicity”. Moreover, the MTD in [2] (mouse, in vivo) is 2 to 4 mg/kg. In addition, in data set [3], the “disruption of tumor vascular endothelium (CD31)” value was “disrupted tumor endothelium”.

With “Bavituximab: human-mouse chimeric antibody targeting PS via beta2-glycoprotein 1”, the objective response in the data set with breast cancer (combination of bavituximab and docetaxel, phase II (28/46)) was 61%; in [5] it was 65%. Also, the Kd in data set [4] was 400 pM.

Take “Benzalkonium chloride [BAC, reference compound]”: in data set [6], the “PI staining of cells” value is “PI-positive nuclei”.

Consider `CC(=O)O[C@@]12CO[C@@H]1C[C@H](O)[C@@]1(C)C(=O)[C@H](O)C3=C(C)[C@@H](OC(=O)[C@H](O)[C@@H](NC(=O)OC(C)(C)C)c4ccccc4)C[C@@](O)([C@@H](OC(=O)c4ccccc4)[C@H]21)C3(C)C` [docetaxel, reference compound], for which the “tumor growth (tumor volume vs days post therapy initiation)” value in the data set on H460 xenografts (H460 in NOD/SCID mice, peptoids 0.25 mg/mouse 3x/week ip, docetaxel 0.5 mg/kg 2x/week ip) is listed as “slowed tumor growth”. The tumor size reduction result in the data set with H460 xenografts (H460 in nude mice, daily dose of 0.5 mg/mL) is recorded as “equally effective in reducing the size of the tumors”. For the same compound, the response rate in the data set with breast cancer (docetaxel alone, separate study) was 41%.

With “Annexin V: 35.8 kDa protein that binds PS in a calcium-dependent manner”, the “competition with PPS1D1 for binding to PS” value in [7] is recorded as “did not compete”. Further, in data set [8], the “removal of liposomes from PPS1 beads” value was “None of these conditions were able to remove liposomes from beads”. Moreover, in [9], the “affinity for PS” value is reported as “nanomolar affinity”. Moreover, the “competition with FITC-PPS1 binding to liposomes” value in [10] was “did not compete”.
